Several values for one entry are separate records, joined by “and”; a condition that tells them apart may be missing. Equal entries are not always repeated. Structures can show the parent of a compound that is named as a salt. Where two headings read alike, the source gives them in different places.
Assays:
[1] = target: T1, MMP-13CD (catalytic domain of collagenase 3) (Homo sapiens, UniProt P45452); assay: biochemical;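 note: inhibition of enzymatic thiopeptolide substrate cleavage (100 µM) in pH 6.0 MES buffer with CaCl2 and DTNB, comparing hydrolysis with versus without inhibitor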
[2] = target: T2, MMP-1FL (full-length interstitial collagenase) (Homo sapiens, UniProt P03956); assay: Thiopeptolide hydrolysis assay, MMP-1; assay type: biochemical; conditions: read-out: MMP01 IC50
T2 sequence (P03956 100-469): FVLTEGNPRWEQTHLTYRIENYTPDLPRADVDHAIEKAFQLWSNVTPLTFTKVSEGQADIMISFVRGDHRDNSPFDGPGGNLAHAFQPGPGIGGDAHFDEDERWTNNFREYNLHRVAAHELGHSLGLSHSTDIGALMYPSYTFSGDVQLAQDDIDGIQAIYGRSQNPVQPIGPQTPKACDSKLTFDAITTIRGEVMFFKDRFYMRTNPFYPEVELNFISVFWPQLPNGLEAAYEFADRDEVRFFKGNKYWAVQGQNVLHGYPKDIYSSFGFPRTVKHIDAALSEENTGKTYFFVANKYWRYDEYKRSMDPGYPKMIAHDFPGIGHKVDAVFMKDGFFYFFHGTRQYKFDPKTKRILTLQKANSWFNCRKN

[3] = target: MMP-3CD (catalytic domain of stromelysin) (Homo sapiens, UniProt P08254); assay: Thiopeptolide hydrolysis assay, MMP-3; assay type: biochemical; conditions: read-out: MMP03 IC50;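 note: inhibition of thiopeptolide substrate (100 µM) cleavage by the MMP-3 catalytic domain, detected with DTNB at pH 6.0 with CaCl2, hydrolysis compared against runs lacking inhibitor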
MMP-3CD (catalytic domain of stromelysin), sequence (P08254 100-272 limits assumed): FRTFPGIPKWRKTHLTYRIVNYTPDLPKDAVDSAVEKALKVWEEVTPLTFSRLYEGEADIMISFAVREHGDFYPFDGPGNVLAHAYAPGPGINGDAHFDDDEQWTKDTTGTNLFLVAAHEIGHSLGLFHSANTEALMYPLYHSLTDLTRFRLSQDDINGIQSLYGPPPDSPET

[4] = target: T1, MMP-13CD (catalytic domain of collagenase 3); assay: Thiopeptolide hydrolysis assay, MMP-13;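 note: inhibition of enzymatic thiopeptolide substrate cleavage (100 µM) in pH 6.0 MES buffer with CaCl2 and DTNB, comparing hydrolysis with versus without inhibitor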

SMILES | IC50 [1] [µM] | IC50 ([2]; Table 1b) [µM] | IC50 ([3]; Table 1b) [µM] | IC50 ([4]; MMP13 IC50 (μM), Table 1b) [nM] | further results
Cn1c(=O)c2cc(C(=O)NCc3ccc4c(c3)OCO4)ccc2n(C)c1=O [1,3-Dimethyl-2,4-dioxo-1,2,3,4-tetrahydroquinazoline-6-carboxylic acid (benzo[1,3]dioxol-5-ylmethyl)amide] | 1.7 |  |  |  | 
Cn1c(=O)n(CCc2ccccc2)c(=O)c2cc(C(=O)NCc3ccc4c(c3)OCO4)ccc21 [1-Methyl-2,4-dioxo-3-phenethyl-1,2,3,4-tetrahydroquinazoline-6-carboxylic acid (benzo[1,3]dioxol-5-ylmethyl)amide] | 0.7 |  |  |  | 
Cn1c(=O)n(Cc2cccs2)c(=O)c2cc(C(=O)NCc3ccccc3)ccc21 [1-Methyl-2,4-dioxo-3-thien-2-ylmethyl-1,2,3,4-tetrahydroquinazoline-6-carboxylic acid benzylamide] | 0.096 |  |  |  | 
O=C(NCc1ccc2c(c1)OCO2)c1ccc2[nH]c(=O)n(Cc3ccncc3)c(=O)c2c1 [2,4-Dioxo-3-pyrid-4-ylmethyl-1,2,3,4-tetrahydroquinazoline-6-carboxylic acid (benzo[1,3]dioxol-5-ylmethyl)amide] | 0.051 |  |  |  | 
O=C(NCc1ccccc1)c1ccc2[nH]c(=O)n(Cc3cccs3)c(=O)c2c1 [2,4-Dioxo-3-thien-2-ylmethyl-1,2,3,4-tetrahydroquinazoline-6-carboxylic acid benzylamide] | 0.3 |  |  |  | 
O=C(NCc1ccc2c(c1)OCO2)c1ccc2c(c1)c(=O)n(Cc1ccccc1)c(=O)n2CC1CC1 [3-Benzyl-1-cyclopropylmethyl-2,4-dioxo-1,2,3,4-tetrahydroquin-azoline-6-carboxylic acid (benzo[1,3]dioxol-5-ylmethyl)amide] | 0.157 |  |  |  | 
CC(C)Cn1c(=O)n(Cc2ccccc2)c(=O)c2cc(C(=O)NCc3ccc4c(c3)OCO4)ccc21 [3-Benzyl-1-isobutyl-2,4-dioxo-1,2,3,4-tetrahydroquinazoline-6-carboxylic acid (benzo[1,3]dioxol-5-ylmethyl)amide] | 0.6 |  |  |  | 
Cn1c(=O)n(Cc2ccccc2)c(=O)c2cc(C(=O)NCc3ccncc3)ccc21 [3-Benzyl-1-methyl-2,4-dioxo-1,2,3,4-tetrahydroquinazoline-6-carboxylic acid (4-pyridylmethyl)amide] | 0.051 |  |  |  | 
Cn1c(=O)n(Cc2ccccc2)c(=O)c2cc(C(=O)NCc3ccccc3)ccc21 [3-Benzyl-1-methyl-2,4-dioxo-1,2,3,4-tetrahydroquinazoline-6-carboxylic acid benzylamide] | 0.057 |  |  |  | 
O=C(NCc1ccc(Cl)cc1)c1ccc2[nH]c(=O)n(Cc3ccccc3)c(=O)c2c1 [3-Benzyl-2,4-dioxo-1,2,3,4-tetrahydroquinazoline-6-carboxylic acid 4-chlorobenzylamide] | 0.167 |  |  |  | 
COc1ccc(CNC(=O)c2ccc3[nH]c(=O)n(Cc4ccccc4)c(=O)c3c2)cc1 [3-Benzyl-2,4-dioxo-1,2,3,4-tetrahydroquinazoline-6-carboxylic acid 4-methoxybenzylamide] | 0.049 |  |  |  | 
Cc1ccc(CNC(=O)c2ccc3[nH]c(=O)n(Cc4ccccc4)c(=O)c3c2)cc1 [3-Benzyl-2,4-dioxo-1,2,3,4-tetrahydroquinazoline-6-carboxylic acid 4-methylbenzylamide] | 1.32 |  |  |  | 
O=C(NCc1cccs1)c1ccc2[nH]c(=O)n(Cc3ccccc3)c(=O)c2c1 [3-Benzyl-2,4-dioxo-1,2,3,4-tetrahydroquinazoline-6-carboxylic acid (2-thienylmethyl)amide] | 1.87 |  |  |  | 
O=C(NCc1cccnc1)c1ccc2[nH]c(=O)n(Cc3ccccc3)c(=O)c2c1 [3-Benzyl-2,4-dioxo-1,2,3,4-tetrahydroquinazoline-6-carboxylic acid (3-pyridylmethyl)amide] | 0.366 |  |  |  | 
O=C(NCc1ccncc1)c1ccc2[nH]c(=O)n(Cc3ccccc3)c(=O)c2c1 [3-Benzyl-2,4-dioxo-1,2,3,4-tetrahydroquinazoline-6-carboxylic acid (4-pyridylmethyl)amide] | 0.183 |  |  |  | 
COc1ccc(COC(=O)c2cccc(C(=O)OCc3ccc(OC)cc3)c2)cc1 [Isophthalic acid bis-(4-methoxy-benzyl) ester] |  |  |  |  | IC50 ([2]; Table II): > 100 µM; IC50 ([3]; Table II): 51 µM; IC50 ([4]; MMP13 IC50 (nM), Table II): 1080 nM
O=C(OCc1ccccc1)c1cccc(C(=O)OCc2ccccc2)c1 [Isophthalic acid dibenzyl ester] |  |  |  |  | IC50 ([2]; Table II): > 100 µM; IC50 ([3]; Table II): > 30 µM; IC50 ([4]; MMP13 IC50 (nM), Table II): 2300 nM
COc1ccc(C(=O)NCc2ccc3c(c2)OCO3)cc1C(=O)NCc1ccc2c(c1)OCO2 [N,N′-Bis-1,3-benzodioxol-5-ylmethyl-4-methoxy-isophthalamide] |  |  |  |  | IC50 ([2]; Table II): > 100 µM; IC50 ([3]; Table II): 50 µM; IC50 ([4]; MMP13 IC50 (nM), Table II): 185 nM
O=C(NCc1cccc(Cl)c1)c1cccc(C(=O)NCc2cccc(Cl)c2)c1 [N,N′-Bis-(3-chloro-benzyl)-isophthalamide] |  |  |  |  | IC50 ([2]; Table II): > 100 µM; IC50 ([3]; Table II): 20 µM; IC50 ([4]; MMP13 IC50 (nM), Table II): 2300 nM
O=C(NCc1cccc(F)c1)c1cccc(C(=O)NCc2cccc(F)c2)c1 [N,N′-Bis-(3-fluoro-benzyl)-isophthalamide] |  |  |  |  | IC50 ([2]; Table II): > 100 µM; IC50 ([3]; Table II): > 100 µM; IC50 ([4]; MMP13 IC50 (nM), Table II): 5650 nM
COc1cccc(CNC(=O)c2cccc(C(=O)NCc3cccc(OC)c3)c2)c1 [N,N′-Bis-(3-methoxy-benzyl)-isophthalamide] |  |  |  |  | IC50 ([2]; Table II): > 100 µM; IC50 ([3]; Table II): > 100 µM; IC50 ([4]; MMP13 IC50 (nM), Table II): 1350 nM

SMILES | IC50 [1] [µM] | IC50 ([2]; Table 1b) [µM] | IC50 ([3]; Table 1b) [µM] | IC50 ([4]; MMP13 IC50 (μM), Table 1b) [nM] | further results
O=C(NCc1ccc(Cl)cc1)c1cccc(C(=O)NCc2ccc(Cl)cc2)c1 [N,N′-Bis-(4-chloro-benzyl)-isophthalamide] |  |  |  |  | IC50 ([2]; Table II): 79 µM; IC50 ([3]; Table II): 9.4 µM; IC50 ([4]; MMP13 IC50 (nM), Table II): 5500 nM
COc1cc(CNC(=O)c2cccc(C(=O)NCc3ccc(F)c(OC)c3)c2)ccc1F [N,N′-Bis-(4-fluoro-3-methoxy-benzyl)-isophthalamide] |  |  |  |  | IC50 ([2]; Table II): > 100 µM; IC50 ([3]; Table II): > 100 µM; IC50 ([4]; MMP13 IC50 (nM), Table II): 930 nM
O=C(NCc1ccc(F)cc1)c1cccc(C(=O)NCc2ccc(F)cc2)c1 [N,N′-Bis-(4-fluoro-benzyl)-isophthalamide] |  |  |  |  | IC50 ([2]; Table II): > 100 µM; IC50 ([3]; Table II): > 100 µM; IC50 ([4]; MMP13 IC50 (nM), Table II): 2350 nM
COc1ccc(CNC(=O)c2cccc(C(=O)NCc3ccc(OC)cc3)c2)cc1 [N,N′-Bis-(4-methoxy-benzyl)-isophthalamide] |  |  |  |  | IC50 ([2]; Table II): > 100 µM; IC50 ([3]; Table II): > 100 µM; IC50 ([4]; MMP13 IC50 (nM), Table II): 1000 nM and 2740 nM
COc1ccc(C(=O)NCc2ccccc2)cc1C(=O)NCc1ccccc1 [N,N′-Dibenzyl-4-methoxy-isophthalamide] |  |  |  |  | IC50 ([2]; Table II): > 100 µM; IC50 ([3]; Table II): > 100 µM; IC50 ([4]; MMP13 IC50 (nM), Table II): 1800 nM and 1100 nM
COc1ccc(CNC(=O)c2cccc(C(=O)NCc3ccccc3)c2)cc1 [N-Benzyl-N′-(4-methoxy-benzyl)-isophthalamide] |  |  |  |  | IC50 ([2]; Table II): > 100 µM; IC50 ([3]; Table II): > 100 µM; IC50 ([4]; MMP13 IC50 (nM), Table II): 2420 nM
Cc1c(=O)n(Cc2ccc(C(=O)OCCN(C)C)cc2)c(=O)n2cc(C(=O)NCc3ccncc3)sc12 [dihydrochloride] |  | > 100 | > 100 | 235 | 
COc1ccc(CNC(=O)c2cn3c(=O)n(Cc4ccc(C(=O)OCCN(C)C)cc4)c(=O)c(C)c3s2)cc1 [hydrochloride] |  | > 30 | > 100 | 45.5 | 
Cc1c(=O)n(Cc2ccc(Br)cc2)c(=O)n2cc(C(=O)NCc3ccncc3)sc12 [hydrochloride] |  | > 30 | > 30 | 36.5 | 
Cc1c(=O)n(Cc2ccc(C#N)cc2)c(=O)n2cc(C(=O)NCc3ccncc3)sc12 [hydrochloride] |  | > 30 | > 30 | 54.7 | 
Cc1c(=O)n(Cc2ccc(C(=O)N3CCOCC3)cc2)c(=O)n2cc(C(=O)NCc3ccncc3)sc12 [hydrochloride] |  | > 100 | > 100 | 37 | 
Cc1c(=O)n(Cc2ccc(C(=O)OCCN(C)C)cc2)c(=O)n2cc(C(=O)NCc3ccc(F)cc3)sc12 [hydrochloride] |  | > 30 | > 100 | 71 | 
Cc1c(=O)n(Cc2ccc(F)cc2)c(=O)n2cc(C(=O)NCc3ccncc3)sc12 [hydrochloride] |  | > 30 | > 30 | 60.5 | 
Cc1c(=O)n(Cc2ccc(S(N)(=O)=O)cc2)c(=O)n2cc(C(=O)NCc3ccncc3)sc12 [hydrochloride] |  | > 30 | > 100 | 46.3 | 
Cc1c(=O)n(Cc2cccc(C#N)c2)c(=O)n2cc(C(=O)NCc3ccncc3)sc12 [hydrochloride] |  | > 30 | > 30 | 173 | 
Cc1c(=O)n(Cc2ccccc2)c(=O)n2cc(C(=O)NCc3ccncc3)sc12 [hydrochloride] |  | > 30 | > 30 | 48.7 | 
Cc1c(=O)n(Cc2nccs2)c(=O)n2cc(C(=O)NCc3ccc(F)cc3)sc12 [hydrochloride] |  | > 100 | > 30 | 530 | 
O=C(NCc1ccccc1)c1cn2c(=O)n(Cc3ccncc3)c(=O)cc2s1 [hydrochloride] |  | > 100 | > 100 | 1800 | 
O=C(NCc1ccncc1)c1cn2c(=O)n(Cc3ccccc3)c(=O)cc2s1 [hydrochloride] |  | > 100 | 68 | 490 | 
COc1ccc(CNC(=O)c2cn3c(=O)n(Cc4ccc(C(=O)O)cc4)c(=O)c(C)c3s2)cc1 [sodium salt] |  | > 100 | 36 | 1.75 | 

Reference: patent US20050004126A1 (priority 2001, published 2005)
